Measurements from patent US9193699B2, “Apoptosis inducing compounds” (INSTITUT NATIONAL DE LA SANTE ET DE LA RECHERCHE MEDICALE …, priority 2011, dated 2015).
Read-outs that look alike come from different tables or passages of the source.

What was measured:
Assay type in all cases: cell-based
[1] = test system: Human breast tumor SUM149 cells; assay: Inhibition of tumor cell growth (alamar blue), SUM149; details: 120 h
Description: All biological experiments (Examples 2 to 9) have been performed with recommended cell line specific culture medium. For SUM149 and L226, culture medium is supplemented with 10% Fetal Calf Serum. For HME-1 and MCF-10A, culture medium is supplemented with 5% Horse Serum.
Human breast tumor SUM149 cells (Inflammatory Breast Cancer (IBC) of basal subtype) were plated in a 96 well plate at 3000 cells/100 μL at 37° C. in 5% CO2. Compounds 1, 3, 4, 5, 6, 7, 8, 9, 10, 11, 12, 13, 14 at 10 μM were added at day 0 and day 3. The number of viable cells was determined in triplicate at day 5 by incubating 10 μL of the alamar blue staining solution for 2 hours at 37° C. (FIG. 1).
Human breast tumor SUM149 cells were plated in a 96 well plate at 3000 cells/100 μL at 37° C. in 5% CO2. Serial dilutions of drugs (compounds 1, 3 or 4) ranging from 20 μM to 300 nM were added at day 0 and day 3. The number of viable cells was determined in triplicate at day 5 by incubating 10 μL of the alamar blue staining solution for 2 hours at 37° C. (FIG. 2).
IC50 values of compounds 1-14 for the inhibition of SUM149 and L226 tumor cells growth were measured (according to the experimental procedure of Examples 2 and 3):
Human breast tumor SUM149 cells were plated in a 96 well plate at 3000 cells/100 μL at 37° C. in 5% CO2 in recommended medium containing 10% FCS or in synthetic medium without FCS. Serial dilutions of drug (compound 4) ranging from 10 μM to 0.16 μM were added at day 0 and day 3. The number of viable cells was determined in triplicate at day 5 by incubating 10 μL of the alamar blue staining solution for 2 hours at 37° C. (FIG. 11). The […] in recommended medium containing 10% FCS was measured at 2 μM, while it was measured at 0.6 μM without FCS.

[2] = test system: caspase-3 and caspase-7 in SUM149 cells; assay: Caspase 3/7 activation (Caspase-Glo 3/7) in SUM149 tumor cells; details: Homo sapiens, R=RLU at 20 μM/RLU at 0 μM, 24 h, read-out: Caspase 3/7 activation R (RLU fold increase from untreated cells)
Description: (§1) Human breast tumor SUM149 cells were plated in a 96 well plate at 10000 cells/100 μL at 37° C. in 5% CO2. Serial dilutions of drugs (compounds 1, 3 or 4) ranging from 20 μM to 300 nM were added at day 0. Active caspase-3 and caspase-7 were measured in triplicate after 24 h treatment by incubating 50 μL of the Caspase-Glo 3/7 reagent for 60 min at 25° C. This reagent containing the proluminescent tetrapeptide sequence DEVD in a cell lysis buffer (Promega) (FIG. 6).
Caspase 3/7 activation in SUM149 and L226 tumor cells was measured.
(§2) The calculated values R correspond to Relative Luminescence Units (RLU) fold increase from untreated cells (R=RLU at 20 μM/RLU at 0 μM).

[3] = test system: caspase-3 and caspase-7 in MCF-10A cells; assay: Caspase 3/7 activation (Caspase-Glo 3/7) in MCF-10A normal cells; details: Homo sapiens, R=RLU at 20 μM/RLU at 0 μM, 24 h, read-out: Caspase 3/7 activation R (RLU fold increase from untreated cells)
Description: as §1, with “normal mammary epithelial MCF-10A” for “breast tumor SUM149”, “9).” for “6).”
as §2
Caspase 3/7 activation in MCF-10A and HME-1 normal cells was also measured.

[4] = test system: Human breast tumor SUM149 cells; assay: Annexin V/7-AAD apoptosis with or without Z-VAD-FMK; details: 2.5 to 20 μM, 48 h, with Z-VAD-FMK pan-caspases inhibitor
Description: Human breast tumor SUM149 cells were plated in dishes at a concentration of 10^6 cells/[…] Cells were treated with compound 3 or compound 4 (2.5 to 20 μM) for 48 h, with or without Z-VAD-FMK, a pan-caspases inhibitor. Cells were double stained with annexinV-FITC and 7-AAD to measure cell apoptosis.

[5] = test system: Thirty eight validated cells lines; assay: High throughput cell growth analysis on cell line panel; details: panel of cell lines
Description: Thirty eight validated cells lines, including BXPC3 cells, DU145 cells, OPM2 cells, U-2-OS cells, PLCPRF5 cells, A549 cells, SUM149 cells, HepG2 cells, L389 cells, HGC27 cells, TOV-112D cells, Messa cells, Karpas 299 cells, A498 cells, HCT-116 cells, H1299 cells, Hep2 cells, DLD1 cells, HUT78 cells, AGS cells, A4573 cells, ACHN cells, Panc-1 cells, A375 cells, BT-20 cells, L226 cells, MDAMB231 cells, U118 cells, PC-3 cells, SW579 cells, CLS354-4 cells, Calu-6 cells, U87MG cells, MeWO cells, HUVEC, HME-1 cells, MCF10-A cells and fibroblasts, were plated at 3000 cells/100 μL at 37° C. in 5% CO2 in recommended medium containing 10% FCS.
Compounds 12, 4, 11, 3, 13, 6, 8, 14, 1 and 7, described in the above examples, and DMSO as a control, were tested at various concentrations and % inhibition of cell growth at 10 μM was more particularly studied.

Cancer stem cells (CSCs) = assay: Aldefluor assay of cancer stem cells (ALDH+ cells), FACS
Description: Cancer stem cells (CSCs) are thought to contribute to tumor initiation, maintenance, resistance to therapy, and metastasis progression. Treatment with drugs enrich in resistant CSCs. In vitro, breast CSCs express high level of aldehyde dehydrogenase-1 (ALDH1), which can be detected by using a commercial assay (CSCs are “Aldefluor” positive). Briefly, cells were incubated in Aldefluor assay buffer containing ALDH substrate (BAAA (BODIPY®—aminoacetaldehyde), 1 μmol/L per 1×10^6 cells). Negative control was done in the presence of diethylaminobenzaldehyde (DEAB), a specific ALDH inhibitor. Cells were then incubated for 40 min at 37° C. Cells were analyzed with the LSRII flow cytometer (Becton-Dickinson). PI (Propidium Iodide) exclusion was used to gate viable cells.

[6] = calculated on the basis of cell growth inhibition, day 5, alamar blue, read-out: IC50 for the inhibition of SUM149 tumor cells growth

Structure (SMILES)	IC50 [1, 6]	IC50 ([1]; recommended medium containing 10% FCS, day 5, read-out: IC50 of SUM149 cell growth in recommended medium)	IC50 ([1]; synthetic medium without FCS, day 5, read-out: IC50 of SUM149 cell growth without FCS)	fold induction at 20 µM [2]	fold induction at 20 µM [3]	effect of Z-VAD treatment on compound induced apoptosis (Annexin V positive cells) [4]	cell lines studied that were sensitive [5]	IC50 ([5]; recommended medium containing 10% FCS, read-out: IC50 of cell growth inhibition on cell line panel)	pool of CSC (ALDH+ cells) after treatment (Cancer stem cells (CSCs); 0.6 μM, DMSO control 2.6%)	aldefluor ratio (percent ALDH+ cells treated vs DMSO) (Cancer stem cells (CSCs); FIG. 12B)
Cc1cc(C)c(C)c(S(=O)(=O)N2CCSC(C)(C)[C@@H]2C(=O)NO)c1C [Compound 4, (3S)—N-hydroxy-4-[(2,3,5,6-tetramethylphenyl)sulfonyl]-2,2-dimethyl-3-thiomorpholine carboxamide]	2500 nM	2000 nM	600 nM	4.4	1	fully impaired				
Cc1c(C)c(C)c(S(=O)(=O)N2CCSC(C)(C)[C@@H]2C(=O)NO)c(C)c1C [Compound 12, (3S)—N-hydroxy-4-[(2,3,4,5,6-pentamethylphenyl)sulfonyl]-2,2-dimethyl-3-thiomorpholine carboxamide]	2500 nM			6.8	1.1		86%	< 1000 nM	0.4%	reduces the aldefluor ratio
